Data published in patent US20060116419A1, “Nf-kb inhibitors” (priority 2002, published 2006).

What was measured:
IL-8 production = assay: Inhibition of IL-8 production through inhibition of NF-κB; assay type: cell-based; conditions: through the inhibition of NF-κB
Procedure: (§1) Effect of IKK-β inhibition on human monocyte stimulated eicosanoid and cytokine production was assessed as follows: Monocytes were isolated from heparinized whole blood by double gradient centrifugation as previously described. Isolated monocyte enriched PBMCs were then adhered to 24 well culture plates at 2×10^6 cells/mL in RPMI 1640 10% FBS (Hyclone, Logan, Utah) for 2 h. to further enrich the monocyte population. The media was then removed, cells washed once with RPMI 1640, and 1 mL RPMI 1640 10% FBS was added to the wells. Test compounds are added to the wells with a final vehicle concentration of 0.05% DMSO. Monocytes were activated by the addition of 200 ng/mL endotoxin (LPS; E. coli serotype 026:B6)(Sigma, St. Louis, Mo.) and incubated for 24 hrs. Cell-free supernates were analyzed by ELISA for TNF-α (EIA developed at SB), PGE2 (Cayman Chemical, Ann Arbor, Mich.), and IL-8 and IL-6 Biosource International, Camarillo, Calif.). Viability of the cells was determined by trypan blue exclusion.

IKK-β = target: T1, IKK-β (Homo sapiens, UniProt O14920); assay: IKK-β kinase assay (phosphorylation of N-terminal fragment of IκB-α); assay type: biochemical
T1 construct: GST; made in house
T1 sequence (O14920 1-756): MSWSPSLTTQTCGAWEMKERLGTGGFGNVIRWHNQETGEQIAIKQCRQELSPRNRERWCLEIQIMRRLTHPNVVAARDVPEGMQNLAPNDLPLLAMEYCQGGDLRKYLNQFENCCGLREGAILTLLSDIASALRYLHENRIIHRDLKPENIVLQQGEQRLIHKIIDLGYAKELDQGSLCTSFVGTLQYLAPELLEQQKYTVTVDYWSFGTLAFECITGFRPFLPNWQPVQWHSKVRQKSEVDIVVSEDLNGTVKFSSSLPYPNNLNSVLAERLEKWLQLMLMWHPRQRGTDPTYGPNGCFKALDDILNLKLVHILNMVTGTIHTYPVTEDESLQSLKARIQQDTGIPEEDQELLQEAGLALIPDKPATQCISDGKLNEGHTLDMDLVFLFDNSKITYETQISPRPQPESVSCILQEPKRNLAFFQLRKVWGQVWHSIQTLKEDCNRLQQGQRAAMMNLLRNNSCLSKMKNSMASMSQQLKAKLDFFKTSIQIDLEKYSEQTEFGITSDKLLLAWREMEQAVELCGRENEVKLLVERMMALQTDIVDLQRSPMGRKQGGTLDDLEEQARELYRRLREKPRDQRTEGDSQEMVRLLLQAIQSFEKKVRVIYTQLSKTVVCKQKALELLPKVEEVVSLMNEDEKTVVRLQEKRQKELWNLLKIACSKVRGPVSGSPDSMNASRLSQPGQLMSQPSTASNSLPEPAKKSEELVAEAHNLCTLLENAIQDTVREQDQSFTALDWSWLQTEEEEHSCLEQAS
Procedure: IKK-β was expressed as a GST-tagged protein, and its activity was assessed in a 96-well scintillation proximity assay (SPA). Briefly, IKK-β was diluted in assay buffer as described above (20 nM final), with various concentrations of compound or DMSO vehicle, 240 nM ATP and 200 nCi [γ-^33P]-ATP (10 mCi/mL, 2000 Ci/mmol; NEN Life Science Products, Boston, Mass.). The reaction was started with the addition of a biotinylated peptide comprising amino acids 15-46 of IκB-α (American Peptide) to a final concentration of 2.4 μM, in a total volume of 50 uL. The sample incubated for one hour a 30° C., followed by the addition of 150 uL of stop buffer (PBS w/o Ca^2+, Mg^2+, 0.1% Triton X-100 (v/v), 10 mM EDTA) containing 0.2 mg streptavidin-coated SPA PVT beads (Amersham Pharmacia Biotech, Piscataway, N.J.). The sample was mixed, incubated for 10 min. at room temperature, centrifuged (1000×g, 2 minutes), and measured on a Hewlett-Packard TopCount.

[1] = tested on: human primary synovial fibroblasts; assay: Mediator production by stimulated human primary synovial fibroblasts; assay type: cell-based
Procedure: The effect of IKK-β inhibitors on primary synovial fibroblast mediator production was assesses as follows: Primary cultures of human RSF were obtained by enzymatic digestion of synovium obtained from adult patients with rheumatoid arthritis as previously described (Roshak et al., 1996b). Cells were cultured in Earl's Minimal Essential Medium (EMEM) which contained 10% fetal bovine serum (FBS), 100 units/ml penicillin and 100 μg/ml streptomycin (GIBCO, Grand Island, N.Y.), at 37° C. and 5% CO2. Cultures were used at passages 4 through 9 in order to obtain a more uniform type B fibroblast population. For some studies, fibroblasts were plated at 5×10^4 cells/mL in 16 mm (diameter) 24 well plates (Costar, Cambridge, Mass.). Cells (70-80% confluence) were exposed to IL-1β (1 ng/mL) (Genzyme, Cambridge, Mass.) for the designated time. Drugs in DMSO vehicle (1%) were added to the cell cultures 15 minutes prior to the addition of IL-1. Studies were conducted 3-4 times using synovial cells from different donors. RSF cellular extracts were prepared from cells treated as described above. Briefly, human RSF were removed by trypsin/EDTA, washed, and harvested by centrifugation. Cellular extracts were prepared as previously described (Dignam et al., 1983; Osborn, et al., 1989). Briefly, at the end of the incubation period the cells (1×10^7 cells) were washed 2× in PBS without Ca^2+ and Mg^2+. […]

[2] = Oral bioavailability in rat; assay type: in vivo
[3] = tested on: LPS-stimulated human monocytes; assay: Pro-inflammatory mediator production from LPS-stimulated human monocytes; assay type: cell-based
Procedure: as §1

[4] = In vivo DMPK profile in preclinical species; conditions: preclinical species tested, compared with analog lacking the 4′-F group
NF-κB = assay: Nuclear translocation of NF-κB in activated cells (EMSA); assay type: cell-based; conditions: human monocytes and other mammalian cells; activation with pro-inflammatory stimuli (e.g. TNF-α, LPS)
Procedure: (§2) NF-κB activity may also be measured in an electrophoretic mobility shift assay (EMSA) to assess the presence of NF-κB protein in the nucleus. The cells of interest are cultured to a density of 1×10^6/mL. The cells are harvested by centrifugation, washed in PBS without Ca^2+ and Mg^2+ and resuspended in PBS with Ca^2+ and Mg^2+ at 1×10^7 cells/mL. To examine the effect of compound on the activation of NF-κB, the cell suspensions are treated with various concentrations of drug or vehicle (DMSO, 0.1%) for 30 min. at 37° C. prior to stimulation with TNF-α (5.0 ng/mL) for an additional 15 min. Cellular and nuclear extracts are prepared follows. Briefly, at the end of the incubation period the cells (1×10^7 cells) are washed 2× in PBS without Ca^2+ and Mg^2+. The resulting cell pellets are resuspended in 20 uL of Buffer A (10 mM Hepes (pH 7.9), 10 mM KCl, 1.5 mM MgCl2, 0.5 mM dithiothreitol (DTT) and 0.1% NP-40) and incubated on ice for 10 min. The nuclei are pelleted by microcentrifugation at 3500 rpm for 10 min at 4° C. […] All samples are stored at −80° C. until analyzed. The protein concentration of the extracts is determined according to the method of Bradford (Bradford, 1976) with BioRad reagents.
The effect of compounds on transcription factor activation is assessed in an electrophoretic mobility shift assay (EMSA) using nuclear extracts from treated cells as described above. […]

IκB-α = assay: Degradation of IκB-α in cells activated with pro-inflammatory stimuli (Western blot); assay type: cell-based; conditions: human monocytes and other mammalian cells; activation with pro-inflammatory stimuli (e.g. TNF-α, LPS)
Procedure: as §2, with “min.” for “min. The nuclei are pelleted by microcentrifugation at 3500 rpm for 10 min at 4° C.”
The effect of compounds on the phosphorylation of IκB may be monitored in a Western blot. […] Immunoreactive bands are detected using the Enchanced Chemiluminescence (ECL) assay system (Amersham Corp., Arlington Heights, Ill.).

[5] = Oral bioavailability in mouse; assay type: in vivo

NC(=O)Nc1sc(-c2ccc(F)cc2)cc1C(N)=O [Formula I, 5-(4-fluoro-phenyl)-2-ureido-thiophene-3-carboxylic acid amide]
inhibition of IL-8 production (IL-8 production): has been demonstrated
inhibition of phosphorylation of the N-terminal fragment of IκB-α by IKK-β (IKK-β): inhibit the phosphorylation of the N-terminal fragment of IκB-α by IKK-β
IKK-2 inhibitory activity relative to the analog lacking the 4′-F group (IKK-β; compared with analog lacking the 4′-F group): comparable IKK-2 inhibitory activity
pro-inflammatory mediator production [1]: inhibits pro-inflammatory mediator production
oral bioavailability [2]: orally bioavailable
pro-inflammatory mediator production [3]: inhibits pro-inflammatory mediator production
DMPK profile relative to the analog lacking the 4′-F group [4]: significantly improved DMPK profile
nuclear translocation of NF-κB (NF-κB): blocks
degradation of IκB-α (IκB-α): blocks the degradation of IκB-α
oral bioavailability [5]: orally bioavailable
